Measured values published in patent publication US20020132817A1, “Heterocyclic compounds, their production and use” (priority 1998, published 2002).
Marks after values point to notes of the source that are not given here.

Legend:
substance P receptor = biological target: T1, substance P receptor (Homo sapiens, UniProt P25103); assay: Radioligand receptor binding inhibitory activity using receptor from human lymphoblast cells (IM-9); conditions: 125I-BHSP radioligand, receptor from IM-9 cells, 25° C. for 30 minutes
T1 construct: The receptor was prepared from human lymphoblast cells (IM-9); endogenous in cells; host or cells: IM-9 human lymphoblast cells (membrane preparation)
Protocol: Radioligand receptor binding inhibitory activity Binding inhibitory activity using receptor from human lymphoblast cells (IM-9)
The receptor was prepared from human lymphoblast cells (IM-9). IM-9 cells (2×10^5 cells/ml) were inoculated and incubated for 3 days (one liter), which was then subjected to centrifuge for 5 minutes at 500×g to obtain cell pellets. […] The residue was washed twice with 30 ml of the above-mentioned buffer, which was then preserved frozen (−80° C.) as a specimen of the receptor.
The specimen was suspended in a reaction buffer (50 mM Tri-HCl buffer (pH 7.4), 0.02% bovine serum albumin, 1 mM phenylmethylsulfonyl fluoride, […], […] bacitracin, 3 mM manganese chloride) and 100 ul portion was the suspension was used in the reaction. […] The amount of nonspecific binding was determined by adding substance P at a final concentration of 2×10^−6M. After the reaction, using a cell harvester (290 PHD, Cambridge Technology, Inc, U.S.A.), rapid filtration was carried out through a glass filter (GF/B, Whatman, U.S.A.) to stop the reaction. After washing three times with 250 ul of 50 mM of Tris-HCl buffer (pH 7.4) containing 0.02% bovine serum albumin, the radioactivity remaining on the filter was determined with a gamma counter. Before use, the filter was immersed in 0.1% polyethyleneimine for 24 hours and air-dried.

[1] = tested on: plasma extravasation induced by capsaicin in trachea of guinea pigs; assay: Inhibitory effect on plasma extravasation induced by capsaicin in trachea of guinea pigs; assay type: in vivo; conditions: for ED50: Cavia porcellus, iv, 5 minutes before capsaicin, Evans' blue dye in trachea, read-out: ID50, μg/kg, i.v.
Protocol: Guinea pigs (Hartley type white male guinea pige), (n=6) were anesthetized with 35 mg/kg of pentobarbital injected intraperitoneally (i.p.), then test compounds were administered intravenously (i.v.). After 5 minutes, a mixed solution of capsaicin ([…]) and Evans' blue dye (20 mg/kg) was administered intravenously to cause reaction. Ten minutes later, test animals were sacrificed by cutting the aorta, then perfused through pulmonary artery with 50 ml of physiological saline. The trachea was excised, and its wet weight was measure. The trachea was incubated at room temperature in 1 ml of acetone-0.3% sodium sulfate (7:3) overnight and Evans' blue dye was extracted from the trachea. The extract solution was centrifuged at 2800 rpm for 5 minutes. The amount of Evans' blue dye in the supernatant was quantified by measuring absorbance at […].
The reaction of accelerating the permeability of blood vessels is expressed in terms of the amount of Evans' blue (μg) per trachea unit weight (g) and the effect of drug was evaluated by calculating the degree of inhibition (% inhibition) according to the following equation: […]

T1 sequence (P25103 whole entry): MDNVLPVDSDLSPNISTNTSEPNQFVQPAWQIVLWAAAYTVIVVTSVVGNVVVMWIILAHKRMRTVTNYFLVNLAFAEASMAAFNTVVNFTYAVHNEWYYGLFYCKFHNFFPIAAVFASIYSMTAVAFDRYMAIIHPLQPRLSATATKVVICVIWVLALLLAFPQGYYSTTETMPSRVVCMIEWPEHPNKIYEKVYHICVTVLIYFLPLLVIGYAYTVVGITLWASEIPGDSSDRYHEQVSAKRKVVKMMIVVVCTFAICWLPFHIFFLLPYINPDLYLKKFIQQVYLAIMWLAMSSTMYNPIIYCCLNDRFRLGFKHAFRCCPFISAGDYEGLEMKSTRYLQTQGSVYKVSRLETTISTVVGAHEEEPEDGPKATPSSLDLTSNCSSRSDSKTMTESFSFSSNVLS

| IC50 (substance P receptor) [pM] | melting point [°C] | SMILES | ED50 [1] [µg/kg] | Degree of Inhibition (%) ([1]; Dosage (i.v.) 100 μg/kg) |
| --- | --- | --- | --- | --- |
| 280 | 194 to 195 | Cc1ccc(-c2c3n(c(=O)c4ncccc24)CCCN(Cc2cc(C(F)(F)F)cc(C(F)(F)F)c2)C3=O)cc1 [Reference Example 56, 7-[3,5-Bis(trifluoromethyl)benzyl]-6,7,8,9,10,12-hexahydro-5-(4-methylphenyl)-6,12-dioxo[1,4]diazepino[2,1-g][1,7]naphthyridine] | 7.2 | – |
| 760 | – | Cc1ccc(-c2c3n(c(=O)c4ncccc24)CCCCN(Cc2cc(C(F)(F)F)cc(C(F)(F)F)c2)C3=O)cc1 [Reference Example 57, 7-[3,5-Bis(trifluoromethyl)benzyl]-6,7,8,9,10,11-hexahydro-5-(4-methylphenyl)-6,13-dioxo-13H-[1,4]diazocino[2,1-g][1,7]naphthyridine] | 4.2 | – |
| – | – | Cc1ccc(-c2c3n(c(=O)c4ncccc24)CCCCCN(Cc2cc(C(F)(F)F)cc(C(F)(F)F)c2)C3=O)cc1 [Reference Example 60, 7-[3,5-Bis(trifluoromethyl)benzyl]-6,7,8,9,10,11,12,14-octahydro-5-(4-methylphenyl)-6,14-dioxo[1,4]diazonino[2,1-g][1,7]naphthyridine] | 11 | – |
| – | – | O=C1c2c(-c3ccccc3)c3cccnc3c(=O)n2CCCN1Cc1cc(C(F)(F)F)cc(C(F)(F)F)c1 [Reference Example 61, 7-[3,5-Bis(trifluoromethyl)benzyl]-6,7,8,9,10,12-hexahydro-6,12-dioxo-5-phenyl[1,4]diazepino[2,1-g][1,7]naphthyridine] | 2.6 | – |
| 1200 | – | O=C1c2c(-c3ccccc3)c3cccnc3c(=O)n2CCCCN1Cc1cc(C(F)(F)F)cc(C(F)(F)F)c1 [Reference Example 62, 7-[3,5-Bis(trifluoromethyl)benzyl]-6,7,8,9,10,11-hexahydro-6,13-dioxo-5-phenyl-13H-[1,4]diazocino[2,1-g][1,7]naphthyridine] | 3.2 | – |
| – | 179 to 180 | Cc1ccc(-c2c3n(c(=O)c4ncccc24)C[C@H](C)CN(Cc2cc(C(F)(F)F)cc(C(F)(F)F)c2)C3=O)cc1 [Reference Example 66, (9R)-7-[3,5-Bis(trifluoromethyl)benzyl]-6,7,8,9,10,12-hexahydro-9-methyl-5-(4-methylphenyl)-6,12-dioxo[1,4]diazepino[2,1-g][1,7]naphthyridine] | 41 | – |
| 170 | 150 to 152 | C[C@H]1CN(Cc2cc(C(F)(F)F)cc(C(F)(F)F)c2)C(=O)c2c(-c3ccccc3)c3cccnc3c(=O)n2C1 [Reference Example 67, (9S)-7-[3,5-Bis(trifluoromethyl)benzyl]-6,7,8,9,10,12-hexahydro-9-methyl-6,12-dioxo-5-phenyl[1,4]diazepino[2,1-g][1,7]naphthyridine] | 1.6 | – |
| – | 179 to 180 | Cc1ccc(-c2c3n(c(=O)c4ncccc24)C[C@@H](C)CN(Cc2cc(C(F)(F)F)cc(C(F)(F)F)c2)C3=O)cc1 [Reference Example 68, (9S)-7-[3,5-Bis(trifluoromethyl)benzyl]-6,7,8,9,10,12-hexahydro-9-methyl-5-(4-methylphenyl)-6,12-dioxo[1,4]diazepino[2,1-g][1,7]naphthyridine] | 3.2 | – |
| 230 | 245 to 247 | C[C@@H]1CCn2c(c(-c3ccccc3)c3cccnc3c2=O)C(=O)N(Cc2cc(C(F)(F)F)cc(C(F)(F)F)c2)C1 [Reference Example 71, (9R)-7-[3,5-Bis(trifluoromethyl)benzyl]-6,7,8,9,10,11-hexahydro-9-methyl-6,13-dioxo-5-phenyl-13H-[1,4]diazocino[2,1-g] [1,7]naphthyridine] | 1.9 | – |
| 1100 | – | Cc1cnc2c(c1-c1ccccc1)C(=O)N(Cc1cc(C(F)(F)F)cc(C(F)(F)F)c1)CCO2 [Reference Example 77, 4-[3,5-Bis(trifluoromethyl)benzyl]-2,3,4,5-tetrahydro-7-methyl-5-oxo-6-phenylpyrido[3,2-f][1,4]oxazepine] | – | 64.0* % |
| 360 | 147 to 148 | Cc1cnc2c(c1-c1ccccc1)C(=O)N(Cc1cc(C(F)(F)F)cc(C(F)(F)F)c1)C[C@H](C)CO2 [Reference Example 85, (S)-5-[3,5-Bis(trifluoromethyl)benzyl]-2,3,4,5-tetrahydro-3,8-dimethyl-6-oxo-7-phenyl-6H-pyrido[2,3-b][1,5]oxazocine] | – | – |
| 440 | 181 to 183 | Cc1cc(-c2ccccc2)c2c([n+]1[O-])OCCN(Cc1cc(C(F)(F)F)cc(C(F)(F)F)c1)C2=O [Reference Example 89, 4-[3,5-Bis(trifluoromethyl)benzyl]-2,3,4,5-tetrahydro-8-methyl-5-oxo-6-phenylpyrido[3,2-f][1,4]oxazepine 9-oxide] | – | – |
| 420 | 183 to 184 | O=C1c2c(-c3ccccc3)cc(CCl)nc2OCCN1Cc1cc(C(F)(F)F)cc(C(F)(F)F)c1 [Reference Example 93, 4-[3,5-Bis(trifluoromethyl)benzyl]-8-chloromethyl-2,3,4,5-tetrahydro-5-oxo-6-phenylpyrido[3,2-f][1,4]oxazepine] | – | – |
| 170 | 139 to 140 | COCc1cc(-c2ccccc2)c2c(n1)OCCN(Cc1cc(C(F)(F)F)cc(C(F)(F)F)c1)C2=O [Reference Example 94, 4-[3,5-Bis(trifluoromethyl)benzyl]-2,3,4,5-tetrahydro-8-methoxymethyl-5-oxo-6-phenylpyrido[3,2-f][1,4]oxazepine] | – | – |
| 120 | 186 to 188 | CN(C)Cc1cc(-c2ccccc2)c2c(n1)OCCN(Cc1cc(C(F)(F)F)cc(C(F)(F)F)c1)C2=O [Reference Example 99, 4-[3,5-Bis(trifluoromethyl)benzyl]-8-dimethylaminomethyl-2,3,4,5-tetrahydro-5-oxo-6-phenylpyrido[3,2-f][1,4]oxazepine] | – | – |
| 840 | 240 to 241 | C[C@@H]1CCn2c(c(-c3ccc(CO)cc3)c3cccnc3c2=O)C(=O)N(Cc2cc(C(F)(F)F)cc(C(F)(F)F)c2)C1 [Reference Example 137, (9R)-7-[3,5-bis(trifluoromethyl)benzyl]-6,7,8,9,10,11-hexahydro-5-(4-hydroxymethylphenyl)-9-methyl-6,13-dioxo-13H-[1,4]diazosino[2,1-g][1,7]napththylidine] | 2.5 | – |

| SMILES | IC50 (substance P receptor) [pM] | melting point [°C] | ED50 [1] [µg/kg] | Degree of Inhibition (%) ([1]; Dosage (i.v.) 100 μg/kg) |
| --- | --- | --- | --- | --- |
| CC(=O)OCc1cc(-c2ccccc2)c2c(n1)OCCN(Cc1cc(C(F)(F)F)cc(C(F)(F)F)c1)C2=O [Reference Example 91, 8-Acetoxymethyl-4-[3,5-bis(trifluoromethyl)benzyl]-2,3,4,5-tetrahydro-5-oxo-6-phenylpyrido[3,2-f][1,4]oxazepine] | 280 | 122 to 124 | – | – |
| CC(=O)OCc1cc(-c2ccccc2)c2c(n1)OCCCN(Cc1cc(C(F)(F)F)cc(C(F)(F)F)c1)C2=O [Reference Example 92, 9-Acetoxymethyl-5-[3,5-bis(trifluoromethyl)benzyl]-2,3,4,5-tetrahydro-6-oxo-7-phenyl-6H-pyrido[2,3-b][1,5]oxazocine] | 740 | 156 to 157 | – | – |
